Data as given in paper PMC12663137 (Nature Communications, 2025).
Values joined by “and” are separate entries in the source; they are usually repeats but may differ in a detail not shown here. Equal entries are not always repeated. Each block holds one molecule with its values, some of them ahead of it.

Columns and labels:
SV2AWT = biological target: T1, SV2AWT (Homo sapiens, UniProt Q7L0J3); assay: Competitive displacement of 10 nM 3H-UCB-J, SV2AWT membranes (Fig. 1A); assay type: binding; conditions: SV2A_WT
T1 construct: expressed in transfected cells; host or cells: HEK293 (ATCC CRL-1573), crude membranes
T1 sequence (Q7L0J3 whole entry): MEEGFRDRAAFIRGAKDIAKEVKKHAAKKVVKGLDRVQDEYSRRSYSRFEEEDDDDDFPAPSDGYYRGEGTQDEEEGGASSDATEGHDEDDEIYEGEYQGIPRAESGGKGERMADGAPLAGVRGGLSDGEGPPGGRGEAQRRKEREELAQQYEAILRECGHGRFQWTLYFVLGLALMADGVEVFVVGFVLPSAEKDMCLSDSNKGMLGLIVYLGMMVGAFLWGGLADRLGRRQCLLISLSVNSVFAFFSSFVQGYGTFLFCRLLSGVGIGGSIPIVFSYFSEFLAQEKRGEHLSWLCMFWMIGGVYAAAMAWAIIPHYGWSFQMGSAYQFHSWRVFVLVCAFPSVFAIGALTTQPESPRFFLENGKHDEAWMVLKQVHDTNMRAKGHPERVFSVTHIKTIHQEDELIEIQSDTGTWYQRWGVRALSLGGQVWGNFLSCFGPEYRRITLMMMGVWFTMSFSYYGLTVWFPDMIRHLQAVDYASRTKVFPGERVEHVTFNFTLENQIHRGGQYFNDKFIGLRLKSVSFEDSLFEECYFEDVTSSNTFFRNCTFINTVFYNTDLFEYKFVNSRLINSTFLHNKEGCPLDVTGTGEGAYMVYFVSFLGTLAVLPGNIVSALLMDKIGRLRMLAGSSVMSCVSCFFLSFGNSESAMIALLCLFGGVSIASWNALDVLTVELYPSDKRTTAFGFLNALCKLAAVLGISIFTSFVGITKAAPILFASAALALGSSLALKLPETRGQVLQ
Experimental: (§1) Ligand binding studies were carried out using crude membranes prepared from HEK293 cells (ATCC, CRL-1573) overexpressing mVenus-SV2AWT or SV2AEM. Membranes were prepared either from transiently transfected cells or from baculovirus-infected cells as described previously. Cells were washed with DPBS (Ca^2+ and Mg^2+ free), followed by resuspending in cold SH buffer (10 mM HEPES-Tris pH 7.4, 320 mM sucrose) containing protease inhibitor cocktail (MedChemExpress) to a density of 10^7 cells/ml. This cell suspension was homogenized by passing through a bead homogenizer (Isobiotec) with 10-micron clearance bead on ice. The lysate was then centrifuged at 4000 × g for 5 min at 4 °C, and the supernatant was aliquoted, frozen in liquid nitrogen, and stored at −80 °C. The mVenus fluorescence estimated using fluorescence size-exclusion chromatography (FSEC) was used to normalize expression levels of mVenus-SV2A mutants studied as detailed previously. For all binding studies, membranes containing […] protein (estimated by BCA method) per reaction were used.
(§2) To obtain dose-response curves of studied SV2A ligands, membranes diluted in 0.2 ml binding buffer (50 mM Tris-Cl, pH 7.4, and 2 mM MgCl2) were incubated with indicated concentrations of ligands for 30 min at 4 °C. […] The binding reaction was arrested by trapping membranes on Unifilter-GF/C 96-well filter plates (Revvity) pre-soaked with 0.1%(w/v) polyethyleneimine (PEI). Membranes were then washed four times with 0.2 ml of cold binding buffer, dried, and 40 µl of scintillation liquid was added to each well. Radioactivity was monitored in MicroBeta2 plate counter (Revvity). Estimates for IC50 were obtained from fitting the data to three-parameter dose-response curves using GraphPad Prism 10.

SV2AEM = biological target: T2, SV2AEM (Homo sapiens, UniProt Q7L0J3); assay: Competitive displacement of 10 nM 3H-UCB-J, SV2AEM membranes (Fig. 1A); assay type: binding; conditions: for Binding of 3H-UCB-J (%): SV2A_EM; for binding response of SV2AEM vs wild-type SV2A: competition with 3H-UCB-J
T2 construct: expressed in transfected cells; host or cells: HEK293 (ATCC CRL-1573), crude membranes (transient transfection or baculovirus)
T2 sequence (Q7L0J3 141-742): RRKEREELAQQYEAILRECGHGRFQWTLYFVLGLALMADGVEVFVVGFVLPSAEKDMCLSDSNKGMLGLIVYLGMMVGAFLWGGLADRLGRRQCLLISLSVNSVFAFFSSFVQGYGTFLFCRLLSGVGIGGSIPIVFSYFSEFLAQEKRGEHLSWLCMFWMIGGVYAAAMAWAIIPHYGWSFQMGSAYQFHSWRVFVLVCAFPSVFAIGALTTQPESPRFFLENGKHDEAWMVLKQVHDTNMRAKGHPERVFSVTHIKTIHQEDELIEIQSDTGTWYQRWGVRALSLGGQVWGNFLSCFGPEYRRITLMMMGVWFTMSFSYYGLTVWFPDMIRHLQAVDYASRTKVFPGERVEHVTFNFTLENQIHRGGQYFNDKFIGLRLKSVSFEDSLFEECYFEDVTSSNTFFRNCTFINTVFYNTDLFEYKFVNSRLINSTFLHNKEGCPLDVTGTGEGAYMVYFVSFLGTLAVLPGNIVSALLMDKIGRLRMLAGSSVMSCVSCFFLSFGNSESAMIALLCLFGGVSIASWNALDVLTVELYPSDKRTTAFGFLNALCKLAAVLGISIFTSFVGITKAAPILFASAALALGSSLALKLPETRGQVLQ
Experimental: as §1, §2

SV2A [1] = assay: Affinity of PSL for the orthosteric site compared with LEV and BRV (author response); assay type: binding; conditions: PSL vs LEV
Description: - Does PSL modulate the binding of LEV or BRV to SV2A? Based on the ﬁndings of the present study, such experiments need to be included.
We appreciate this comment. It is not feasible to evaluate the modulatory eƯect of PSL on the binding of LEV or BRV, because PSL also binds to the orthosteric site, with much higher aƯinity than LEV (>1000-fold) or BRV (~100-fold), and directly competes with and readily displaces them (see Fig. below, for LEV , and PMID:
31619465 for BRV). This competitive eƯect of PSL on LEV and BRV has also been described in the literature (PMID: 31619465). We have discussed this limitation in the revised manuscript.
- SV2s belong to the SLC22 family. Is the allosteric binding site conserved in some of these proteins like for […]
Among the four key residues in the allosteric site (F188, Y461, S601, and L655), F188 and Y461 are conserved in OCT1 and OCT2; S601 is not conserved, and L655 is replaced by an alanine in OCT1 and OCT2 (Fig. below).
- Because no information is provided, I guess that the allosteric binding site of SV2A is not conserved in all MFS transporters. Therefore, the title is misleading and should be changed.
As described above, some of the key residues at this site are conserved in OCTs. However, it is unlikely that any single site, orthosteric or allosteric, is conserved across the entire MFS transporter family, and we fully […]

SV2A WT and L655Q [2] = system: SV2A WT and L655Q; design: method as in PMID: 31619465; conditions: previous literature; ref PMID: 31619465; cited from earlier work
SV2A [3] = system: SV2A; design: method as in PMID: 31619465; conditions: PSL vs BRV; ref PMID: 31619465; cited from earlier work
SV2A WT and L655Q [4] = assay: 3H-padsevonil saturation binding, WT and L655Q (Supplementary Fig. 7D); design: species or system human; conditions: L655Q vs WT
Experimental: as §1
An equal volume of dimethyl sulfoxide (DMSO) was added to control reactions. Reactions were arrested after 2 h by trapping the membranes on a Unifilter-GF/C 96-well filter plate pre-soaked with 0.1%(w/v) polyethyleneimine. […] Radioactivity was monitored in MicroBeta2 plate counter. […]

Binding of 3H-UCB-J (%) (SV2AWT; Log [1H-UCB-J] (M) -5.000): 0.68% and -0.10%
Binding of 3H-UCB-J (%) (SV2AEM; Log [1H-UCB-J] (M) -10.000): 81.17% and 90.15%
IC50 fold lower than that of levetiracetam (SV2AEM; UCB-J vs levetiracetam): 1000 fold
binding response of SV2AEM vs wild-type SV2A (SV2AEM): comparable to those of wild-type SV2A
IC50 (SV2AEM; radioligand displacement, 10 nM 3H-UCB-J, padsevonil sentence prints SV2A (Fig. 1)): 4.1 ± 0.4 nM
Structure (SMILES): Cc1cnccc1CN1C[C@@H](c2cc(F)c(F)c(F)c2)CC1=O [UCB-J]
Binding of 3H-UCB-J (%) (SV2AWT; Log [1H-UCB-J] (M) -6.000): 0.71% and -0.36% and 1.84% and 0.28% and 0.81% and 0.45%
Binding of 3H-UCB-J (%) (SV2AWT; Log [1H-UCB-J] (M) -6.523): 1.22% and 0.52% and -0.33% and 0.54% and 1.39% and 0.90%
Binding of 3H-UCB-J (%) (SV2AWT; Log [1H-UCB-J] (M) -7.523): 12.02% and 10.25% and 9.91% and 8.99% and 8.62% and 8.05%
Binding of 3H-UCB-J (%) (SV2AWT; Log [1H-UCB-J] (M) -8.000): 31.03% and 29.35% and 27.21% and 30.71% and 28.47% and 28.55%
Binding of 3H-UCB-J (%) (SV2AWT; Log [1H-UCB-J] (M) -8.523): 65.52% and 65.94% and 58.12% and 42.68% and 40.88% and 45.33%
Binding of 3H-UCB-J (%) (SV2AWT; Log [1H-UCB-J] (M) -9.000): 87.65% and 87.60% and 75.33% and 94.15% and 69.01% and 65.28%
Binding of 3H-UCB-J (%) (SV2AWT; Log [1H-UCB-J] (M) -9.523): 75.61% and 87.06% and 81.72% and 100.70% and 107.65% and 91.65%
Binding of 3H-UCB-J (%) (SV2AWT; Log [1H-UCB-J] (M) -10.000): 99.86% and 95.05% and 102.73% and 88.69% and 93.37% and 102.84%
Binding of 3H-UCB-J (%) (SV2AWT; Log [1H-UCB-J] (M) -11.000): 103.52% and 102.05% and 94.43% and 83.50% and 83.58% and 84.45%
Binding of 3H-UCB-J (%) (SV2AEM; Log [1H-UCB-J] (M) -6.523): 2.78% and -1.47% and -5.78% and -0.31% and 4.06% and 1.75%
Binding of 3H-UCB-J (%) (SV2AEM; Log [1H-UCB-J] (M) -7.523): 15.59% and 10.62% and 12.56% and 12.68% and 13.47% and 20.94%
Binding of 3H-UCB-J (%) (SV2AEM; Log [1H-UCB-J] (M) -8.000): 31.93% and 22.52% and 28.83% and 28.77% and 31.87% and 32.29%
Binding of 3H-UCB-J (%) (SV2AEM; Log [1H-UCB-J] (M) -8.523): 75.64% and 50.69% and 48.99% and 56.15% and 58.52% and 59.86%
Binding of 3H-UCB-J (%) (SV2AEM; Log [1H-UCB-J] (M) -9.000): 73.21% and 53.48% and 72.67% and 79.47% and 76.43% and 84.63%
Binding of 3H-UCB-J (%) (SV2AEM; Log [1H-UCB-J] (M) -11.000): 103.75% and 70.18% and 88.51% and 77.34% and 86.03% and 113.17%
Binding of 3H-UCB-J (%) (SV2AEM; Log [1H-UCB-J] (M) -12.000): 116.50% and 86.88% and 109.04% and 74.97% and 104.60% and 108.00%

binding response of SV2AEM vs wild-type SV2A (SV2AEM): comparable to those of wild-type SV2A
Structure (SMILES): COCc1nn2c(CN3C[C@@H](CC(F)(F)Cl)CC3=O)c(C(F)(F)F)nc2s1 [padsevonil]
orthosteric site affinity higher than LEV (SV2A [1]): > 1000 fold
Hill coefficient (SV2A WT and L655Q [2]): ~1
orthosteric site affinity higher than BRV (SV2A [3]): ~ 100 fold
padsevonil binding in L655Q mutant compared to wild-type (SV2A WT and L655Q [4]): not able to detect a substantial difference
Binding of 3H-UCB-J (%) (SV2AWT; Log [Padsevonil] (M) -5.523): 0.15% and -0.08% and -0.07% and 0.0758% and -0.0562%
Binding of 3H-UCB-J (%) (SV2AWT; Log [Padsevonil] (M) -6.000): 0.06% and 0.26% and 0.47% and 0.68% and 0.17% and 0.52%
Binding of 3H-UCB-J (%) (SV2AWT; Log [Padsevonil] (M) -6.523): -0.0333% and 0.63% and 1.13% and 0.79% and 1.06%
Binding of 3H-UCB-J (%) (SV2AWT; Log [Padsevonil] (M) -7.000): 0.99% and 1.18% and 1.52% and 1.41% and 1.96% and 1.26%
Binding of 3H-UCB-J (%) (SV2AWT; Log [Padsevonil] (M) -7.523): 11.48% and 11.90% and 12.69% and 11.26% and 10.29% and 8.18%
Binding of 3H-UCB-J (%) (SV2AWT; Log [Padsevonil] (M) -8.000): 53.01% and 65.10% and 62.58% and 68.15% and 66.28% and 57.17%
Binding of 3H-UCB-J (%) (SV2AWT; Log [Padsevonil] (M) -8.523): 80.92% and 83.61% and 90.83% and 87.28% and 90.55% and 93.06%
Binding of 3H-UCB-J (%) (SV2AWT; Log [Padsevonil] (M) -9.000): 70.83% and 92.57% and 94.89% and 80.96% and 85.33% and 98.78%
Binding of 3H-UCB-J (%) (SV2AWT; Log [Padsevonil] (M) -9.523): 81.14% and 79.95% and 92.20% and 92.92% and 81.04% and 90.08%
Binding of 3H-UCB-J (%) (SV2AWT; Log [Padsevonil] (M) -10.000): 105.07% and 88.23% and 106.70% and 105.83% and 107.31% and 86.86%
Binding of 3H-UCB-J (%) (SV2AEM; Log [Padsevonil] (M) -5.000): 3.25% and 0.52% and -0.52% and -1.49% and 2.74% and 1.94%
Binding of 3H-UCB-J (%) (SV2AEM; Log [Padsevonil] (M) -6.000): 0.40% and 1.18% and 0.39% and -2.99% and 2.99% and -0.40%
Binding of 3H-UCB-J (%) (SV2AEM; Log [Padsevonil] (M) -6.523): 3.53% and 6.77% and 1.25% and 5.54% and 6.72% and 2.16%
Binding of 3H-UCB-J (%) (SV2AEM; Log [Padsevonil] (M) -8.000): 61.56% and 69.84% and 60.36% and 64.16% and 85.63% and 52.51%
Binding of 3H-UCB-J (%) (SV2AEM; Log [Padsevonil] (M) -8.523): 98.63% and 86.36% and 64.73% and 84.51% and 93.84% and 76.42%
Binding of 3H-UCB-J (%) (SV2AEM; Log [Padsevonil] (M) -9.000): 99.89% and 102.95% and 84.66% and 80.15% and 101.99% and 100.11%
Binding of 3H-UCB-J (%) (SV2AEM; Log [Padsevonil] (M) -10.000): 102.45% and 91.95% and 108.05% and 96.45% and 103.55% and 82.92%
